Measured values published in US20250019373A1, “ARYL OR HETEROARYL DERIVATIVE, AND PHARMACEUTICAL COMPOSITION COMPRISING SAME AS ACTIVE INGREDIENT FOR PREVENTION OR TREATMENT OF KINASE-RELATED DISEASES” (VORONOI INC., priority 2021, published 2025).

Tested on: HT-29 cells
Assay: Cell necrosis inhibitory activity under necroptosis-inducing conditions (TNF-α, Z-VAD-FMK, LCL161) in HT-29 cells, Cell Titer-Glo
Type: cell-based
Conditions: Homo sapiens, 100 ng/mL TNF-α + 25 μM Z-VAD-FMK + Smac mimetic LCL161, 24 hours, cell viability
Method: To evaluate the cell necrosis inhibitory activity of the compound according to the present invention, an experiment was conducted as follows.
To evaluate the efficacy of inhibiting cell necrosis under TNF-α-mediated cell death-inducing conditions, a HT-29 cell line (Korean Cell Line Bank Accession No. #30038) was cultured in RPMI-1640 (HyClone #SH3027.01) medium containing 10% fetal bovine serum (FBS) and 1% penicillin/streptomycin to analyze cell viability. More specifically, for testing, the cell line was seeded in a 96-well flat bottom plate (Corning #3903) at a concentration of 10,000 cells/well and incubated at 37° C. under a 5% CO2 condition for 24 hours. Each well was treated with 100 ng/mL TNF-α, 25 μM pan-caspase inhibitor (Z-VAD-FMK, Selleckchem #S8102), and 10 µM Smac mimetic LCL161 (Selleckchem #S7009) and allowed to react for 10 minutes. The compounds of Examples were treated at 11 concentrations (the highest concentration being 0.1 μM or 1 μM) with a 3-fold concentration gradient, and as a control, dimethyl sulfoxide (DMSO) was treated at a concentration of 0.05% (v/v), which is the same as those when the compounds were treated. The treated cells were incubated for 24 hours. To confirm the degree of cell viability, 100 μL of Cell Titer-Glo (Promega #G7573) was added to the medium of the cultured cells and cultured for additional 10 minutes, and then luminescence was measured using a microplate reader. Based on the […] of control cells that were not treated with the compound, the degree of cell necrosis inhibitory activity was calculated according to the treatment concentration of each compound. Here, the concentration at which the cell necrosis inhibitory activity was 50% was determined as an EC50 (nM) value and calculated using Prism (ver. 8.4.3 #GraphPad) software.

Point of comparison: `CNC(=O)c1n[nH]c2cc(-c3cncc(NC(=O)N4OCC[C@H]4c4ccccc4)c3)ccc12` [Example 19, (S)-N-(5-(3-(methylcarbamoyl)-1H-indazol-6-yl)pyridin-3-yl)-3-phenylisoxazolidine-2-carboxamide], EC50 1 nM. Against it:
- Cc1ccc(-c2ccc3ncc(C#N)n3n2)cc1NC(=O)N1OCC[C@H]1c1ccccc1 [Example 118, (S)-N-(5-(3-cyanoimidazo[1,2-b]pyridazin-6-yl)-2-methylphenyl)-3-phenylisoxazolidine-2-carboxamide] — 4.3-fold higher, 4.3 nM
- Cc1ccc(-c2ccc3nc(N)c(C(=O)[C@@H]4C[C@@H]4F)n3c2)cc1NC(=O)N1OCC[C@H]1c1ccccc1 [Example 135, (S)-N-(5-(2-amino-3-((1S,2S)-2-fluorocyclopropane-1-carbonyl)imidazo[1,2-a]pyridin-6-yl)-2-methylphenyl)-3-phenylisoxazolidine-2-carboxamide] — 5-fold lower, 0.2 nM
- Nc1nc2cc(-c3ccc(F)c(NC(=O)N4OCC[C@H]4c4ccccc4)c3F)ccn2n1 [Example 134, (S)-N-(3-(2-amino-[1,2,4]triazolo[1,5-a]pyridin-7-yl)-2,6-difluorophenyl)-3-phenylisoxazolidine-2-carboxamide] — 13-fold higher, 13 nM
- Cc1ccc(-c2ccc3nccn3c2)cc1NC(=O)N1OCC[C@H]1c1ccccc1 [Example 113, (S)-N-(5-(imidazo[1,2-a]pyridin-6-yl)-2-methylphenyl)-3-phenylisoxazolidine-2-carboxamide] — 2.4-fold higher, 2.4 nM
- CC(=O)Nc1cn2nc(-c3cccc(NC(=O)N4OCC[C@H]4c4ccccc4)c3)ccc2n1 [Example 1, (S)-N-(3-(2-acetamidoimidazo[1,2-b]pyridazin-6-yl)phenyl)-3-phenylisoxazolidine-2-carboxamide] — within 1.5-fold, 0.9 nM
- COc1ncc(-c2ccc3nc(NC(C)=O)oc3c2)cc1NC(=O)N1OCC[C@H]1c1ccccc1 [Example 13, (S)-N-(5-(2-acetamidobenzo[d]oxazol-6-yl)-2-methoxypyridin-3-yl)-3-phenylisoxazolidine-2-carboxamide] — 2.6-fold higher, 2.6 nM
- COc1ncc(-c2ccc3nc(N)nn3c2)cc1NC(=O)N1OCC[C@H]1c1cc(F)cc(F)c1 [Example 57, (S)-N-(5-(2-amino-[1,2,4]triazolo[1,5-a]pyridin-6-yl)-2-methoxypyridin-3-yl)-3-(3,5-difluorophenyl)isoxazolidine-2-carboxamide] — 4.4-fold higher, 4.4 nM
- Cc1ccc(-c2ccn3nc(N)nc3c2)cc1NC(=O)N1OCC[C@H]1c1cc(F)cc(F)c1 [Example 63, (S)-N-(5-(2-amino-[1,2,4]triazolo[1,5-a]pyridin-7-yl)-2-methylphenyl)-3-(3,5-difluorophenyl)isoxazolidine-2-carboxamide] — 5-fold lower, 0.2 nM
- Cc1ncc(-c2ccn3nc(N)nc3c2)cc1NC(=O)N1OCC[C@H]1c1ccccc1 [Example 50, (S)-N-(5-(2-amino-[1,2,4]triazolo[1,5-a]pyridin-7-yl)-2-methylpyridin-3-yl)-3-phenylisoxazolidine-2-carboxamide] — within 1.5-fold, 1.3 nM
- Cc1ncc(-c2ccc3nc(N)nn3c2)cc1NC(=O)N1OCC[C@H]1c1ccc(F)cc1 [Example 56, (S)-N-(5-(2-amino-[1,2,4]triazolo[1,5-a]pyridin-6-yl)-2-methylpyridin-3-yl)-3-(4-fluorophenyl)isoxazolidine-2-carboxamide] — within 1.5-fold, 0.7 nM
- CC(=O)Nc1nc2ccc(-c3cnc(C)c(NC(=O)N4OCC[C@H]4c4ccccc4)c3)cc2s1 [Example 28, (S)-N-(5-(2-acetamidobenzo[d]thiazol-6-yl)-2-methylpyridin-3-yl)-3-phenylisoxazolidine-2-carboxamide] — 5-fold lower, 0.2 nM
- COc1ncc(-c2cc(C(F)(F)F)c3c(N)ncnn23)cc1NC(=O)N1OCC[C@H]1c1ccccc1 [Example 129, (S)-N-(5-(4-amino-5-(trifluoromethyl)pyrrolo[2,1-f][1,2,4]triazin-7-yl)-2-methoxypyridin-3-yl)-3-phenylisoxazolidine-2-carboxamide] — 3.6-fold higher, 3.6 nM
- Cc1ccc(-c2csc3c(N)ncnc23)cc1NC(=O)N1OCC[C@H]1c1ccccc1 [Example 122, (S)-N-(5-(4-aminothieno[3,2-d]pyrimidine-7-yl)-2-methylphenyl)-3-phenylisoxazolidine-2-carboxamide] — 20-fold higher, 20.4 nM
- COc1ccc(-c2ccc3nc(NC(C)=O)sc3c2)cc1NC(=O)N1OCC[C@H]1c1ccccc1 [Example 27, (S)-N-(5-(2-acetamidobenzo[d]thiazol-6-yl)-2-methoxyphenyl)-3-phenylisoxazolidine-2-carboxamide] — the same, 1 nM
- COc1ccc(-c2ccn3nc(N)nc3c2)c(F)c1NC(=O)N1OCC[C@H]1c1ccccc1 [Example 103, (S)-N-(3-(2-amino-[1,2,4]triazolo[1,5-a]pyridin-7-yl)-2-fluoro-6-methoxyphenyl)-3-phenylisoxazolidine-2-carboxamide] — 16-fold higher, 15.6 nM
- Cc1ncc(-c2ccc3nc(N)nn3c2)cc1NC(=O)N1OCC[C@H]1c1ccc(F)c(F)c1 [Example 55, (S)-N-(5-(2-amino-[1,2,4]triazolo[1,5-a]pyridin-6-yl)-2-methylpyridin-3-yl)-3-(3,4-difluorophenyl)isoxazolidine-2-carboxamide] — 1.7-fold lower, 0.6 nM
- COc1ncc(-c2ccc3c(N)ncnn23)cc1NC(=O)N1OCC[C@H]1c1ccccc1 [Example 99, (S)-N-(5-(4-aminopyrrolo[2,1-f][1,2,4]triazin-7-yl)-2-methoxypyridin-3-yl)-3-phenylisoxazolidine-2-carboxamide] — 8.2-fold higher, 8.2 nM
- Cc1ccc(-c2ccn3nc(N)nc3c2)cc1NC(=O)N1OCC[C@H]1c1ccc(F)cc1 [Example 64, (S)-N-(5-(2-amino-[1,2,4]triazolo[1,5-a]pyridin-7-yl)-2-methylphenyl)-3-(4-fluorophenyl)isoxazolidine-2-carboxamide] — 5-fold lower, 0.2 nM
- Cc1ccc(-c2cc3c(cn2)ncn3C)cc1NC(=O)N1OCC[C@H]1c1ccccc1 [Example 133, (S)-N-(2-methyl-5-(1-methyl-1H-imidazo[4,5-c]pyridin-6-yl)phenyl)-3-phenylisoxazolidine-2-carboxamide] — 6.5-fold higher, 6.5 nM
- Cc1ncc(-c2ccc3nc(N)nn3c2)cc1NC(=O)N1OCC[C@H]1c1ccc(Cl)c(C(F)(F)F)c1 [Example 44, (S)-N-(5-(2-amino-[1,2,4]triazolo[1,5-a]pyridin-6-yl)-2-methylpyridin-3-yl)-3-(4-chloro-3-(trifluoromethyl)phenyl)isoxazolidine-2-carboxamide] — 4.1-fold higher, 4.1 nM
- Cc1ncc(-c2ccn3nc(N)nc3c2)cc1NC(=O)N1OCC[C@H]1c1ccc(C#N)cc1 [Example 70, (S)-N-(5-(2-amino-[1,2,4]triazolo[1,5-a]pyridin-7-yl)-2-methylpyridin-3-yl)-3-(4-cyanophenyl)isoxazolidine-2-carboxamide] — 5.2-fold higher, 5.2 nM
- CNC(=O)c1n[nH]c2cc(-c3cnc(C)c(NC(=O)N4OCC[C@H]4c4ccccc4)c3)ccc12 [Example 21, (S)-N-(2-methyl-5-(3-(methylcarbamoyl)-1H-indazol-6-yl)pyridin-3-yl)-3-phenylisoxazolidine-2-carboxamide] — 2.5-fold lower, 0.4 nM
- Cc1ccc(-c2ccc3ncsc3n2)cc1NC(=O)N1OCC[C@H]1c1ccccc1 [Example 131, (S)-N-(2-methyl-5-(thiazolo[5,4-b]pyridin-5-yl)phenyl)-3-phenylisoxazolidine-2-carboxamide] — 4-fold higher, 4 nM
